Where two headings read alike, the source gives them in different places. Positions of bridges follow the written chain, without caps; N, C: chain ends. Non-standard residues stand in square brackets, D forms with d. Residues, ends and D or L forms follow the SMILES beside them. Phe(4-COOH) = N[C@@H](Cc1ccc(C(=O)O)cc1)C(=O)O; 2Pal = N[C@@H](Cc1ccccn1)C(=O)O

These results are taken from patent US9340590B2 (priority 2011, dated 2016).

Holding throughout (assay): cell-based
One assay deals with hNav1.5 (Homo sapiens, UniProt Q14524).
hNav1.5, sequence (Q14524 whole entry, looked up): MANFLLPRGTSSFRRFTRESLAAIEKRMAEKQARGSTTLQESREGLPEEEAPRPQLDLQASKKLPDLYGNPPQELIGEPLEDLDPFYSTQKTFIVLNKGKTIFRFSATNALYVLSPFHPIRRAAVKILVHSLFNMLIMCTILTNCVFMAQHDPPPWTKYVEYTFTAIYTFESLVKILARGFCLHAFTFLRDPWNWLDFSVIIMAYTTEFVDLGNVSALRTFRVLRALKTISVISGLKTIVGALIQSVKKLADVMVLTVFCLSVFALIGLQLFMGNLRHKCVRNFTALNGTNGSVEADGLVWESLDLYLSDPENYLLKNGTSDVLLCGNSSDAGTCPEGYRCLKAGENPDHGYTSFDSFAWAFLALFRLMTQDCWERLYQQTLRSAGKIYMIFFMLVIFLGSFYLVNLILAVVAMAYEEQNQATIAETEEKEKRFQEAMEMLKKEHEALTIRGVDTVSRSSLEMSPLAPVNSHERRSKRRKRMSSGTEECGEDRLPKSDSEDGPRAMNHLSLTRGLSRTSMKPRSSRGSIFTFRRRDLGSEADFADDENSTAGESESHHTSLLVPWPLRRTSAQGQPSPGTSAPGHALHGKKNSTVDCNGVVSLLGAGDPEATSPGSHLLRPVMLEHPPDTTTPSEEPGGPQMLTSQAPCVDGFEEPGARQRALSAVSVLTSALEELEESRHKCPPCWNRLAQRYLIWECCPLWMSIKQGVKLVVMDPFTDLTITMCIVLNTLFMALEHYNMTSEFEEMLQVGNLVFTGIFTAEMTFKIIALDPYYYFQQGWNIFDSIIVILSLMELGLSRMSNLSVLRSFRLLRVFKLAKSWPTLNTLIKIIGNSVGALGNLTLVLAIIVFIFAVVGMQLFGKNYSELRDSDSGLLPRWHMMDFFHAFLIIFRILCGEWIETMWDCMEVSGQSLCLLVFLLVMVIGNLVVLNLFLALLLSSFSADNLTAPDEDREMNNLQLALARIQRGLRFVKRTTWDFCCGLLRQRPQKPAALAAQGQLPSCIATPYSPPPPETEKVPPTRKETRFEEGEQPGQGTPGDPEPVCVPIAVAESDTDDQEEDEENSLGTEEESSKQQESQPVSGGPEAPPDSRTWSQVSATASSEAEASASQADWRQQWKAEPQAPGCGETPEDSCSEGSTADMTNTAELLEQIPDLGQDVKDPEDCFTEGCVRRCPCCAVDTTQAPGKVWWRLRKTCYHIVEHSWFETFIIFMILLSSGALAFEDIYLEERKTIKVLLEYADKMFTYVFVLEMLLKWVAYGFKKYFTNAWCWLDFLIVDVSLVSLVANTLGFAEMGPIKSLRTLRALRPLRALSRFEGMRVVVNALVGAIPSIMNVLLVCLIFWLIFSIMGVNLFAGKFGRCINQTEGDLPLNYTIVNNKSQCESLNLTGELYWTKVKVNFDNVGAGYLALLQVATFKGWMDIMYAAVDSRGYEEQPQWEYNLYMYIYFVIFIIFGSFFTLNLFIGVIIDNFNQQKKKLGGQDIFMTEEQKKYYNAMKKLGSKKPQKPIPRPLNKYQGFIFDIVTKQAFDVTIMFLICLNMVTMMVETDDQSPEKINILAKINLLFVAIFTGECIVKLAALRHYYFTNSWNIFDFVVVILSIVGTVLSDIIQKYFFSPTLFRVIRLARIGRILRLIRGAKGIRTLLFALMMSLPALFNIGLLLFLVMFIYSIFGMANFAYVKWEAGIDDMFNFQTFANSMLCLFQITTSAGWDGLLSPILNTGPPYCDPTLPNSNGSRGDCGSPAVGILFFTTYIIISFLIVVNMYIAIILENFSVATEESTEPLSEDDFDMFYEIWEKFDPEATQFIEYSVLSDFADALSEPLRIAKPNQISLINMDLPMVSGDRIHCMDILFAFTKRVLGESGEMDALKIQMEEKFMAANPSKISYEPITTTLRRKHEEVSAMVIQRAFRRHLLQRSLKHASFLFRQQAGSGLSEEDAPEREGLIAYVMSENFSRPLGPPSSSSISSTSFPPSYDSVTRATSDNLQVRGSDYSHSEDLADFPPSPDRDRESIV
The next assay concerns the target hNav1.7 (Homo sapiens, UniProt Q15858). Format: cell-based. The following applies: Table 26; IonWorks Quattro, use; […]; read-out: IWQ Use Nav1.7. A general note: In patch-clamp work, channel activity is measured electrically.
A further assay deals with hNav1.3 (Homo sapiens, UniProt Q9NY46). The following applies: Table 26; IonWorks Quattro, use; […]; read-out: IWQ Use Nav1.3.
[1] abbreviates: Table 26, IonWorks Quattro, use, […], read-out: IWQ Use Nav1.5.

hNav1.7, sequence (Q15858 whole entry, looked up): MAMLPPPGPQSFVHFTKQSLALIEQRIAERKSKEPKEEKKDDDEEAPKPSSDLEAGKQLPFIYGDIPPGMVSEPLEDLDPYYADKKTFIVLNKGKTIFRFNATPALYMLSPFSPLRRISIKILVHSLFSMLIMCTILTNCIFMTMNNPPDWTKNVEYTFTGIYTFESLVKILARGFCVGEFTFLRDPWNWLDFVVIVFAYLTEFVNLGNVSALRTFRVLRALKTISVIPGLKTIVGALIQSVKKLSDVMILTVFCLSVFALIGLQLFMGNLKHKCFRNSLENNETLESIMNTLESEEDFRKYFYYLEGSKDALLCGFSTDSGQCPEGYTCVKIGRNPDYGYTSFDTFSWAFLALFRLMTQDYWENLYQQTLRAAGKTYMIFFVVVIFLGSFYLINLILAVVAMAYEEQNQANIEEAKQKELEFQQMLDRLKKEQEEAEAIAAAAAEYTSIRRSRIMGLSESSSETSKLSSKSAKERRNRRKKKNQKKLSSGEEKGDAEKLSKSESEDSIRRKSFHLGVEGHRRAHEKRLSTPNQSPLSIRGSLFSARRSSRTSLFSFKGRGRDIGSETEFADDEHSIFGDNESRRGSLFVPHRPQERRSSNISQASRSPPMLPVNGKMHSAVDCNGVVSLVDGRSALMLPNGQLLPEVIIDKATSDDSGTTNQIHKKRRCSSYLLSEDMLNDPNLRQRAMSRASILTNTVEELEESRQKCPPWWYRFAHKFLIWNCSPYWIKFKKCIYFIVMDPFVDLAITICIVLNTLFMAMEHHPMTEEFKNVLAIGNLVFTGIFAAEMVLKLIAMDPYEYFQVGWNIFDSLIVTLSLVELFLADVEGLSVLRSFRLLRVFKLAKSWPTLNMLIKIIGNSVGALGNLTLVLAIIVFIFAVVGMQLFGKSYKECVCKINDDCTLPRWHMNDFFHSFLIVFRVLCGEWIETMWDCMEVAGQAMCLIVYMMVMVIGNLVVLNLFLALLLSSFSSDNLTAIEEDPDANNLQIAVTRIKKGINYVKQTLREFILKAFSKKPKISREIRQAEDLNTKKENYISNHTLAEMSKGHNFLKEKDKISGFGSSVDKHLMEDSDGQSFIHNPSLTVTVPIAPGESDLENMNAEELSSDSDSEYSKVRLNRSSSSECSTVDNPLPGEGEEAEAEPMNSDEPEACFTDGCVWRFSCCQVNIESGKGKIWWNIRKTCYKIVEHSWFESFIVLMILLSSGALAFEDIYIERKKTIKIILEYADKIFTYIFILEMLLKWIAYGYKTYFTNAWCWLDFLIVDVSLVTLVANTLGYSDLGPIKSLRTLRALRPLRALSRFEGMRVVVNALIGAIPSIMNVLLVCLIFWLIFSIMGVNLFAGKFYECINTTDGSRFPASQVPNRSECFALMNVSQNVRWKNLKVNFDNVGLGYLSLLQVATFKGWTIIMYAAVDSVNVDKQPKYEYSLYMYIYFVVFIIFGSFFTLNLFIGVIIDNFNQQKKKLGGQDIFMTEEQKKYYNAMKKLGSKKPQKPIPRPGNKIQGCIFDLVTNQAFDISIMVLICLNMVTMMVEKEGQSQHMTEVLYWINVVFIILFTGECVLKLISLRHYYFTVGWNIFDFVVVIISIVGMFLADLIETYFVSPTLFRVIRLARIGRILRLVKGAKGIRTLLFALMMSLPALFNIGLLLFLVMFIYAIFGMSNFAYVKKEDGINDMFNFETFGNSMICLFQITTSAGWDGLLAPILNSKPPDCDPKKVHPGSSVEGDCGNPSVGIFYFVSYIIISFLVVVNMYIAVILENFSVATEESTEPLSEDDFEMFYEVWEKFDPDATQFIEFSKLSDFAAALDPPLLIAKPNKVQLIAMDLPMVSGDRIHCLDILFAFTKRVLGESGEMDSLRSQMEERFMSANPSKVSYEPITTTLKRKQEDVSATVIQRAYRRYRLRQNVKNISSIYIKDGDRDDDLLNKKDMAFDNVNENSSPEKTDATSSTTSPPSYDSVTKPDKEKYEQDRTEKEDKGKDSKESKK

As for `CC[C@H](C)[C@@H]1NC(=O)[C@@H]2CSSC[C@@H]3NC(=O)[C@H](C(C)C)NC(=O)[C@H](CC(C)C)NC(=O)[C@H](CC(N)=O)NC(=O)[C@@H]4CCCN4C(=O)[C@H](CCCNC(=N)N)NC(=O)[C@H](CSSC[C@H](NC(=O)[C@@H](N)CC(=O)O)C(=O)N[C@@H](CC(C)C)C(=O)NCC(=O)N[C@@H](Cc4ccccc4)C(=O)N[C@@H](CCSC)C(=O)N[C@@H](CCCNC(=N)N)C(=O)N[C@@H](CCCCN)C(=O)N2)NC(=O)[C@H](CSSC[C@@H](C(=O)N[C@@H](CCCCN)C(=O)N[C@@H](Cc2ccc(O)cc2)C(=O)N[C@H](C(=O)N[C@@H](Cc2ccccc2)C(N)=O)[C@@H](C)O)NC(=O)[C@H](Cc2c[nH]c4ccccc24)NC(=O)[C@H](CCCCN)NC(=O)[C@H](Cc2c[nH]cn2)NC(=O)[C@H]([C@@H](C)O)NC(=O)[C@H](CCCNC(=N)N)NC(=O)[C@H](CO)NC3=O)NC(=O)[C@H](CCCCN)NC(=O)[C@H](CC(=O)O)NC(=O)[C@H](CC(N)=O)NC(=O)[C@H](CC(=O)O)NC(=O)[C@@H]2CCCN2C1=O` [compound 396] (H-DCLGFMRKCIPDNDKCCRPNLVCSRTHKWCKYTF-NH2; disulfide 2-17, 9-23, 16-30), the IC50 turned out to be 3.78 µM on hNav1.5 (setting [1]), 20 nM at hNav1.7 and 40 nM on hNav1.3.

Take `CC[C@H](C)[C@@H]1NC(=O)[C@@H]2CSSC[C@@H]3NC(=O)[C@H](C(C)C)NC(=O)[C@H](CC(C)C)NC(=O)[C@H](CC(N)=O)NC(=O)[C@@H]4CCCN4C(=O)[C@H](CCCNC(=N)N)NC(=O)[C@H](CSSC[C@H](NC(=O)[C@@H](N)CC(=O)O)C(=O)N[C@@H](CC(C)C)C(=O)NCC(=O)N[C@@H](Cc4ccccc4)C(=O)N[C@@H](CCSC)C(=O)N[C@@H](CCCNC(=N)N)C(=O)N[C@@H](CCCCN)C(=O)N2)NC(=O)[C@H](CSSC[C@@H](C(=O)N[C@@H](CCCCN)C(=O)N[C@@H](Cc2ccc(O)cc2)C(=O)N[C@@H](CO)C(=O)N[C@@H](Cc2ccccc2)C(N)=O)NC(=O)[C@H](Cc2c[nH]c4ccccc24)NC(=O)[C@H](CCCCN)NC(=O)[C@H](Cc2c[nH]cn2)NC(=O)[C@H]([C@@H](C)O)NC(=O)[C@H](CCCNC(=N)N)NC(=O)[C@H](CO)NC3=O)NC(=O)[C@H](CCCCN)NC(=O)[C@H](CC(=O)O)NC(=O)[C@H](CC(N)=O)NC(=O)[C@H](CC(=O)O)NC(=O)[C@@H]2CCCN2C1=O` [compound 397] (H-DCLGFMRKCIPDNDKCCRPNLVCSRTHKWCKYSF-NH2; disulfide 2-17, 9-23, 16-30): the IC50 is 6.28 µM on hNav1.5 (setting [1]), 40 nM on hNav1.7 and 60 nM at hNav1.3.

As to `CC[C@H](C)[C@@H]1NC(=O)[C@@H]2CSSC[C@@H]3NC(=O)[C@H](C(C)C)NC(=O)[C@H](CC(C)C)NC(=O)[C@H](CC(N)=O)NC(=O)[C@@H]4CCCN4C(=O)[C@H](CCCNC(=N)N)NC(=O)[C@H](CSSC[C@H](NC(=O)[C@@H](N)CC(=O)O)C(=O)N[C@@H](CC(C)C)C(=O)NCC(=O)N[C@@H](Cc4ccccc4)C(=O)N[C@@H](CCSC)C(=O)N[C@@H](CCCNC(=N)N)C(=O)N[C@@H](CCCCN)C(=O)N2)NC(=O)[C@H](CSSC[C@@H](C(=O)N[C@@H](CCCCN)C(=O)N[C@@H](Cc2ccc(O)cc2)C(=O)N2CCC[C@H]2C(=O)N[C@@H](Cc2ccccc2)C(N)=O)NC(=O)[C@H](Cc2c[nH]c4ccccc24)NC(=O)[C@H](CCCCN)NC(=O)[C@H](Cc2c[nH]cn2)NC(=O)[C@H]([C@@H](C)O)NC(=O)[C@H](CCCNC(=N)N)NC(=O)[C@H](CO)NC3=O)NC(=O)[C@H](CCCCN)NC(=O)[C@H](CC(=O)O)NC(=O)[C@H](CC(N)=O)NC(=O)[C@H](CC(=O)O)NC(=O)[C@@H]2CCCN2C1=O` [compound 398] (H-DCLGFMRKCIPDNDKCCRPNLVCSRTHKWCKYPF-NH2; disulfide 2-17, 9-23, 16-30), the IC50 at hNav1.5 (setting [1]) is 6.93 µM; at hNav1.7 it was 5190 nM; at hNav1.3, 3340 nM.

For the molecule `CC[C@H](C)[C@@H]1NC(=O)[C@@H]2CSSC[C@@H]3NC(=O)[C@H](C(C)C)NC(=O)[C@H](CC(C)C)NC(=O)[C@H](CC(N)=O)NC(=O)[C@@H]4CCCN4C(=O)[C@H](CCCNC(=N)N)NC(=O)[C@H](CSSC[C@H](NC(=O)[C@@H](N)CC(=O)O)C(=O)N[C@@H](CC(C)C)C(=O)NCC(=O)N[C@@H](Cc4ccccc4)C(=O)N[C@@H](CCSC)C(=O)N[C@@H](CCCNC(=N)N)C(=O)N[C@@H](CCCCN)C(=O)N2)NC(=O)[C@H](CSSC[C@@H](C(=O)N[C@@H](CCCCN)C(=O)N[C@@H](Cc2ccc(O)cc2)C(=O)N[C@@H](Cc2ccc(O)cc2)C(=O)N[C@@H](Cc2ccccc2)C(N)=O)NC(=O)[C@H](Cc2c[nH]c4ccccc24)NC(=O)[C@H](CCCCN)NC(=O)[C@H](Cc2c[nH]cn2)NC(=O)[C@H]([C@@H](C)O)NC(=O)[C@H](CCCNC(=N)N)NC(=O)[C@H](CO)NC3=O)NC(=O)[C@H](CCCCN)NC(=O)[C@H](CC(=O)O)NC(=O)[C@H](CC(N)=O)NC(=O)[C@H](CC(=O)O)NC(=O)[C@@H]2CCCN2C1=O` [compound 399] (H-DCLGFMRKCIPDNDKCCRPNLVCSRTHKWCKYYF-NH2; disulfide 2-17, 9-23, 16-30), the IC50 is more than 5 µM on hNav1.5 (setting [1]), 70 nM on hNav1.7 and 30 nM at hNav1.3.

For `CC[C@H](C)[C@@H]1NC(=O)[C@@H]2CSSC[C@@H]3NC(=O)[C@H](C(C)C)NC(=O)[C@H](CC(C)C)NC(=O)[C@H](CC(N)=O)NC(=O)[C@@H]4CCCN4C(=O)[C@H](CCCNC(=N)N)NC(=O)[C@H](CSSC[C@H](NC(=O)[C@@H](N)CC(=O)O)C(=O)N[C@@H](CC(C)C)C(=O)NCC(=O)N[C@@H](Cc4ccccc4)C(=O)N[C@@H](CCSC)C(=O)N[C@@H](CCCNC(=N)N)C(=O)N[C@@H](CCCCN)C(=O)N2)NC(=O)[C@H](CSSC[C@@H](C(=O)N[C@@H](CCCCN)C(=O)N[C@@H](Cc2ccc(O)cc2)C(=O)N[C@@H](CC(C)C)C(=O)N[C@@H](Cc2ccccc2)C(N)=O)NC(=O)[C@H](Cc2c[nH]c4ccccc24)NC(=O)[C@H](CCCCN)NC(=O)[C@H](Cc2c[nH]cn2)NC(=O)[C@H]([C@@H](C)O)NC(=O)[C@H](CCCNC(=N)N)NC(=O)[C@H](CO)NC3=O)NC(=O)[C@H](CCCCN)NC(=O)[C@H](CC(=O)O)NC(=O)[C@H](CC(N)=O)NC(=O)[C@H](CC(=O)O)NC(=O)[C@@H]2CCCN2C1=O` [compound 400] (H-DCLGFMRKCIPDNDKCCRPNLVCSRTHKWCKYLF-NH2; disulfide 2-17, 9-23, 16-30), the IC50 against hNav1.5 (IWQ Use Nav1.5 (μM)) is more than 5 µM; at hNav1.7, 130 nM; at hNav1.3, 70 nM.

`CC[C@H](C)[C@@H]1NC(=O)[C@@H]2CSSC[C@@H]3NC(=O)[C@H](C(C)C)NC(=O)[C@H](CC(C)C)NC(=O)[C@H](CC(N)=O)NC(=O)[C@@H]4CCCN4C(=O)[C@H](CCCNC(=N)N)NC(=O)[C@H](CSSC[C@H](NC(=O)[C@@H](N)CC(=O)O)C(=O)N[C@@H](CC(C)C)C(=O)NCC(=O)N[C@@H](Cc4ccccc4)C(=O)N[C@@H](CCSC)C(=O)N[C@@H](CCCNC(=N)N)C(=O)N[C@@H](CCCCN)C(=O)N2)NC(=O)[C@H](CSSC[C@@H](C(=O)N[C@@H](CCCCN)C(=O)N[C@@H](Cc2ccc(O)cc2)C(=O)NCC(=O)N[C@@H](Cc2ccccc2)C(N)=O)NC(=O)[C@H](Cc2c[nH]c4ccccc24)NC(=O)[C@H](CCCCN)NC(=O)[C@H](Cc2c[nH]cn2)NC(=O)[C@H]([C@@H](C)O)NC(=O)[C@H](CCCNC(=N)N)NC(=O)[C@H](CO)NC3=O)NC(=O)[C@H](CCCCN)NC(=O)[C@H](CC(=O)O)NC(=O)[C@H](CC(N)=O)NC(=O)[C@H](CC(=O)O)NC(=O)[C@@H]2CCCN2C1=O` [compound 401] (H-DCLGFMRKCIPDNDKCCRPNLVCSRTHKWCKYGF-NH2; disulfide 2-17, 9-23, 16-30): the IC50 against hNav1.5 (IWQ Use Nav1.5 (μM)) is more than 5 µM; on hNav1.7, 290 nM; on hNav1.3, 40 nM.

Turning to `CC[C@H](C)[C@@H]1NC(=O)[C@@H]2CSSC[C@@H]3NC(=O)[C@H](C(C)C)NC(=O)[C@H](CC(C)C)NC(=O)[C@H](CC(N)=O)NC(=O)[C@@H]4CCCN4C(=O)[C@H](CCCNC(=N)N)NC(=O)[C@H](CSSC[C@H](NC(=O)[C@@H](N)CC(=O)O)C(=O)N[C@@H](CC(C)C)C(=O)NCC(=O)N[C@@H](Cc4ccccc4)C(=O)N[C@@H](CCSC)C(=O)N[C@@H](CCCNC(=N)N)C(=O)N[C@@H](CCCCN)C(=O)N2)NC(=O)[C@H](CSSC[C@@H](C(=O)N[C@@H](CCCCN)C(=O)N[C@@H](Cc2ccc(O)cc2)C(=O)N[C@@H](Cc2ccccn2)C(=O)N[C@@H](Cc2ccccc2)C(N)=O)NC(=O)[C@H](Cc2c[nH]c4ccccc24)NC(=O)[C@H](CCCCN)NC(=O)[C@H](Cc2c[nH]cn2)NC(=O)[C@H]([C@@H](C)O)NC(=O)[C@H](CCCNC(=N)N)NC(=O)[C@H](CO)NC3=O)NC(=O)[C@H](CCCCN)NC(=O)[C@H](CC(=O)O)NC(=O)[C@H](CC(N)=O)NC(=O)[C@H](CC(=O)O)NC(=O)[C@@H]2CCCN2C1=O` [compound 402] (H-DCLGFMRKCIPDNDKCCRPNLVCSRTHKWCKY[2Pal]F-NH2; disulfide 2-17, 9-23, 16-30), the IC50 was found to be 8.36 µM at hNav1.5 (setting [1]), 120 nM at hNav1.7 and 160 nM on hNav1.3.

For `CC[C@H](C)[C@@H]1NC(=O)[C@@H]2CSSC[C@@H]3NC(=O)[C@H](C(C)C)NC(=O)[C@H](CC(C)C)NC(=O)[C@H](CC(N)=O)NC(=O)[C@@H]4CCCN4C(=O)[C@H](CCCNC(=N)N)NC(=O)[C@H](CSSC[C@H](NC(=O)[C@@H](N)CC(=O)O)C(=O)N[C@@H](CC(C)C)C(=O)NCC(=O)N[C@@H](Cc4ccccc4)C(=O)N[C@@H](CCSC)C(=O)N[C@@H](CCCNC(=N)N)C(=O)N[C@@H](CCCCN)C(=O)N2)NC(=O)[C@H](CSSC[C@@H](C(=O)N[C@@H](CCCCN)C(=O)N[C@@H](Cc2ccc(O)cc2)C(=O)N[C@@H](Cc2ccc(C(=O)O)cc2)C(=O)N[C@@H](Cc2ccccc2)C(N)=O)NC(=O)[C@H](Cc2c[nH]c4ccccc24)NC(=O)[C@H](CCCCN)NC(=O)[C@H](Cc2c[nH]cn2)NC(=O)[C@H]([C@@H](C)O)NC(=O)[C@H](CCCNC(=N)N)NC(=O)[C@H](CO)NC3=O)NC(=O)[C@H](CCCCN)NC(=O)[C@H](CC(=O)O)NC(=O)[C@H](CC(N)=O)NC(=O)[C@H](CC(=O)O)NC(=O)[C@@H]2CCCN2C1=O` [compound 403] (H-DCLGFMRKCIPDNDKCCRPNLVCSRTHKWCKY[Phe(4-COOH)]F-NH2; disulfide 2-17, 9-23, 16-30), the results for the IC50 at hNav1.5 (setting [1]), on hNav1.7 and at hNav1.3 were 9.06 µM, 160 nM and 310 nM, respectively.
